The target of the test is Vascular endothelial growth factor receptor 2 (Homo sapiens, UniProt P35968). Put plainly: Inhibition of human VEGFR2 expressed in Sf9 cells.
Vascular endothelial growth factor receptor 2, sequence (P35968 whole entry): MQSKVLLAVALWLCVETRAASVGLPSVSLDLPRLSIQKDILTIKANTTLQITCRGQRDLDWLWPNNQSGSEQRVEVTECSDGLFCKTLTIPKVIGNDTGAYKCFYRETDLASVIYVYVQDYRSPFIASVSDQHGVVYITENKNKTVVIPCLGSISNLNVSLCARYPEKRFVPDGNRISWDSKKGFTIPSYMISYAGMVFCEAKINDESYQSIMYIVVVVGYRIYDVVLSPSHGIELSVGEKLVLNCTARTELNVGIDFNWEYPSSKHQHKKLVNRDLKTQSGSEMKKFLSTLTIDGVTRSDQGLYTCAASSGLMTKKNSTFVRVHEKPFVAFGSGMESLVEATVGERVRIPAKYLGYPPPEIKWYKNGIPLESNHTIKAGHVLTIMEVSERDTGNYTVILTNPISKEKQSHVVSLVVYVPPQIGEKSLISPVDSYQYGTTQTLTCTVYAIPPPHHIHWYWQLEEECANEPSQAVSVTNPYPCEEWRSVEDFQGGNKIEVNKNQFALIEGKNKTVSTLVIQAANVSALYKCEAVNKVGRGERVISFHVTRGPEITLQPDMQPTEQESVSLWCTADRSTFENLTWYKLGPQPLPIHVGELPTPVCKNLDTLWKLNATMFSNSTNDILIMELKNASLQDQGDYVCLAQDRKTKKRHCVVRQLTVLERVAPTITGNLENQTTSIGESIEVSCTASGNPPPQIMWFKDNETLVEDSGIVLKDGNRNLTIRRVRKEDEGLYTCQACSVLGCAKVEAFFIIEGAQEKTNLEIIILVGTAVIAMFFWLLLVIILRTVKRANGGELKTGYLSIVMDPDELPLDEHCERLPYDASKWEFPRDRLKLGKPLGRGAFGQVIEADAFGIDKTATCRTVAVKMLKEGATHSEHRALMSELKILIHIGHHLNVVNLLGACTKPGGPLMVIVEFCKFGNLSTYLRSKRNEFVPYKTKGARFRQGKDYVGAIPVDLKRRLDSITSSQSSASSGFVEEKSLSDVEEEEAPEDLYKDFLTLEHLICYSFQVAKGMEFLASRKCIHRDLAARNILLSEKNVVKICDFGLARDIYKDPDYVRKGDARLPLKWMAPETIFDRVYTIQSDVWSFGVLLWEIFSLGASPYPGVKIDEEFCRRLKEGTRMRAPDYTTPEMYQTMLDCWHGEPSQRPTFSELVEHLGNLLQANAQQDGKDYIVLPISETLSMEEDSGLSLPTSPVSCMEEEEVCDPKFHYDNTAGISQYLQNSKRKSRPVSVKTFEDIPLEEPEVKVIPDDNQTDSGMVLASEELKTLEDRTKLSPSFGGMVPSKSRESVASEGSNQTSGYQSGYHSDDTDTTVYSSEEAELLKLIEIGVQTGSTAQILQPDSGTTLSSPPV

Usually IC50 stands for the concentration that gives 50% inhibition. With `COC(=O)c1ccc2c(c1)NC(=O)C2C(=NC1CCN(C)CC1)c1ccccc1` (stereo not drawn) [(Z)-3-[(1-Methylpiperidin-4-ylamino)-phenyl-methylene]-2-oxo-2,3-dihydro-1H-indole-6-carboxylic Acid Methyl Ester], the IC50 was above 10 µM.

Compound `COC(=O)c1ccc2c(c1)NC(=O)C2C(=NC1CCC(NC(=O)CN(C)C)CC1)c1ccccc1` (stereo not drawn) [(Z)-methyl 3-((4-(2-(dimethylamino)acetamido)cyclohexylamino)(phenyl)methylene)-2-oxoindoline-6-carboxylate] had an IC50 above 10 µM.

For the compound `N#Cc1ccc2c(c1)NC(=O)C2C(=Nc1ccc(CN2CCCCC2)cc1)c1ccccc1` (stereo not drawn) [(Z)-6-Cyano-3-[phenyl-(4-piperidin-1-ylmethyl-phenylamino)-methylene]-indolin-2-one], the IC50 came out at 0.248 µM.

Values taken from BindingDB's records for doi:10.1021/jm900431g (Boehringer Ingelheim Pharma, 2009).
